Laboratory results: PMC11085134, “Chemical Constituents and Anticancer Activities of Marine-Derived Fungus Trichoderma lixii” (Molecules, 2024)
Entries after “also recorded” stand apart in the source; their conditions may differ. Read-outs that look alike come from different tables or passages of the source.

Tests used:
PANC-1 cancer cells = assay: Anti-austerity assay (cytotoxicity under glucose starvation vs normal glucose); conditions: for Anti-Austerity Activity Selectivity: Glucose − versus Glucose +; for Selective index (SI): IC50 high glucose versus no glucose media
Description: Human myeloma KMS-11, colorectal HT-29, and pancreatic PANC-1 cancer cells were obtained from the Japanese Collection of Research Bioresources (JCRB) Cell Bank (JCRB1179, Osaka, Japan), the American Type Culture Collection (ATCC, HTB-38, Manassas, VA, USA), and the Riken BioResource Research Center (BRC, RCB2095, Ibaraki, Japan), respectively. KMS-11, HT-29, and PANC-1 were cultured in Roswell Park Memorial Institute (RPMI)-1640 medium (Nacalai Tesque, Inc.), McCoy’s 5A medium (Gibco Thermo Fisher Scientific Inc., Waltham, MA, USA), and Dulbecco’s Modified Eagle Medium (DMEM) high glucose (Nacalai Tesque, Inc.), respectively. The culture media contained 10% fetal bovine serum (FBS, Equitech-Bio Inc., Kerrville, TX, USA) and 50 μg/mL kanamycin (Fujifilm Wako Pure Chemical Corporation, Osaka, Japan). To induce cell adaptation to nutrient starvation, PANC-1 was cultured in DMEM no glucose (Nacalai Tesque, Inc.) containing 10% dialyzed FBS (Equitech-Bio Inc.) and 50 μg/mL kanamycin. Human umbilical vein endothelial cells (HUVEC) were obtained from Kurabo Industries Ltd., Osaka, Japan (KE-4109) and cultured in HuMedia-EB2 (Kurabo Industries Ltd.) supplemented with HuMedia-EG (2% FBS, 10 ng/mL human epidermal growth factor, 1.34 μg/mL hydrocortisone, antibacterial agents, 50 μg/mL gentamicin and 50 ng/mL amphotericin B, 5 ng/mL human fibroblast growth factor-B, and 10 μg/mL heparin). Cells were incubated in a humidified incubator at 37 °C in an atmosphere of 5% CO2.
The anti-austerity activity against PANC-1 cell line was investigated by a WST-8 based assay according to the method described above. PANC-1 cells were plated in a 96-well flat bottom plate at a high density of 10,000 cells/100 μL/well in a DMEM high glucose medium overnight. The medium was removed, washed with phosphate-buffered saline (PBS, Nissui Pharmaceutical Co., Ltd., Tokyo, Japan) twice, and then replaced with either DMEM high glucose or DMEM no glucose. After incubation for 12 h, crude extracts (final concentration 100 μg/mL) or serially diluted compounds were added, and the cells were incubated for an additional 12 h. […] Selective index (SI) was based on the difference between the IC50 values obtained from the high glucose and no glucose media. Antimycin A was used as a positive control.

[1] = system: HUVEC (human umbilical vein endothelial cells); assay: Antiproliferative WST-8 assay, HUVEC; assay type: cell-based; conditions: 48 h, normal cell line, read-out: Antiproliferative Activity (IC50 ± SE) HUVEC
Description: The antiproliferative activity of all eleven isolated compounds against normal cell line HUVEC was also examined by WST-8 based assay (Table 2). […] Further extensive structural modifications and in-depth structure–activity relationship studies are required to enhance efficacy and reduce the side effects on normal cells.
(§1) The antiproliferative activity against cancer and normal cell lines was investigated by a WST-8 based assay. […] Compounds to be tested were dissolved in DMSO for stock solution (20 μg/mL) and the final concentration of DMSO was 0.5%. Then, 100 μL of corresponding medium containing 10% WST-8 (Nacalai Tesque, Inc.) was added and incubated for up to 4 h. The absorbance of the formazan products was measured at 450 nm using an iMark^TM microplate reader (Bio-Rad Laboratories, Inc. Hercules, CA, USA). […] Cisplatin (Fujifilm Wako Pure Chemical Corporation) was used as a positive control.

[2] = system: KMS-11 human myeloma cell line; assay: Antiproliferative WST-8 assay, KMS-11; assay type: cell-based; conditions: read-out: Antiproliferative Activity (IC50 ± SE) KMS-11
Description: (§2) The assessment of antiproliferative effects is a fundamental in vitro assay in the early stages of drug discovery for the screening of potential anticancer compounds that merit further investigation and development for their therapeutic potential in the fight against cancer. The antiproliferative activity of all isolated compounds against three cancer cell lines (KMS-11, HT-29, and PANC-1) was examined by WST-8 based assay according to the manufacturer’s instructions.
as §1

[3] = system: HT-29 human colorectal cell line; assay: Antiproliferative WST-8 assay, HT-29; assay type: cell-based; conditions: read-out: Antiproliferative Activity (IC50 ± SE) HT-29
Description: as §2, §1

[4] = system: PANC-1 human pancreas cell line; assay: Antiproliferative WST-8 assay, PANC-1; assay type: cell-based; conditions: read-out: Antiproliferative Activity (IC50 ± SE) PANC-1
Description: as §2, §1

[5] = system: KMS-11, HT-29, and PANC-1 cancer cell lines; assay: Antiproliferative activity, summary over the three cancer cell lines; assay type: cell-based, human; conditions: for IC50: Homo sapiens, 48 h, KMS-11, HT-29 and PANC-1, read-out: IC50, antiproliferative, over all tested cancer cell lines
Description: as §2, §1

[6] = system: complex II in the mitochondrial electron transport chain; design: method as in PMID 31435860; conditions: cited from earlier work
[7] = design: method as in PMID 31030449, PMID 36005532; conditions: cited from earlier work
[8] = design: method as in PMID 31030449, PMID 36005532; conditions: cited from earlier work; remark: listed apart in the source
[9] = system: complex I in helminth mitochondria; conditions: cited from earlier work
Escherichia coli = system: Escherichia coli; design: method as in PMID 26728965, PMID 32676071, PMID 32077325, doi:10.1007/s10600-022-03814-7; conditions: cited from earlier work
human cervical HeLa = system: human cervical HeLa; design: method as in PMID 29144133; conditions: at 50 μM; cited from earlier work
colon HCT-116 = system: colon HCT-116; design: method as in PMID 29144133; conditions: at 50 μM; cited from earlier work
breast MCF-7 = system: breast MCF-7; design: method as in PMID 29144133; conditions: at 50 μM; cited from earlier work
[10] = design: method as in PMID 25659618; conditions: oxygen-labile conjugated diene units; cited from earlier work
leukemia K562 = system: leukemia K562; design: method as in PMID 29144133; conditions: at 50 μM; cited from earlier work
[11] = system: mouse lymphoma L5178Y cell line; design: method as in earlier work; conditions: at 28 μM; cited from earlier work
leukemia HL-60 = system: leukemia HL-60; design: method as in PMID 29144133; conditions: at 50 μM; cited from earlier work
lung A549 = system: lung A549; design: method as in PMID 29144133; conditions: at 50 μM; cited from earlier work
[12] = Homo sapiens, PANC-1, 12 h, read-out: Anti-Austerity Activity (IC50 ± SE) Glucose +
[13] = Homo sapiens, PANC-1, 12 h, read-out: Anti-Austerity Activity (IC50 ± SE) Glucose −

CCCCCC[C@H]1C(=O)O[C@H](C)[C@H](NC(=O)c2cccc(NC=O)c2O)C(=O)O[C@@H](C)[C@@H]1OC(=O)CC(C)C [Antimycin A, reference compound]
Anti-Austerity Activity Selectivity (PANC-1 cancer cells): selective | IC50 (PANC-1 cancer cells; [12]): > 300 µM | IC50 (PANC-1 cancer cells; [13]): 0.0162 ± 0.00026 µM | Selective index (SI) (PANC-1 cancer cells): ≥ 18,480

N.N.[Cl][Pt][Cl] [Cisplatin, reference compound]
IC50 [1]: 13.7 ± 2.57 µM | IC50 ([2]; 48 h): 4.91 ± 1.06 µM | IC50 (PANC-1 cancer cells; read-out: Anti-Austerity Activity (IC50 ± SE) Glucose +, 12 h, normal glucose (DMEM high glucose)): > 100 µM | IC50 (PANC-1 cancer cells; read-out: Anti-Austerity Activity (IC50 ± SE) Glucose −, 12 h, glucose starvation (DMEM no glucose)): > 100 µM | IC50 (PANC-1 cancer cells; read-out: IC50 against PANC-1 under both glucose starvation and normal glucose conditions, 12 h, both Glucose − and Glucose +): > 100 µM | IC50 ([3]; 48 h): 10.6 ± 0.83 µM | IC50 ([4]; 48 h): 28.6 ± 3.43 µM

COc1ccc2cc(NC(=O)C3=NO[C@H]4[C@H](O)C=C[C@@H](O)[C@@]4(O)C3)c(=O)oc2c1OC [Compound 1, trichodermamide A]
IC50 ([1]; Homo sapiens, HUVEC): > 100 µM | IC50 ([2]; Homo sapiens, KMS-11, 48 h): > 100 µM | IC50 (PANC-1 cancer cells; [12]): > 100 µM | IC50 (PANC-1 cancer cells; [13]): > 100 µM | IC50 (PANC-1 cancer cells; Homo sapiens, PANC-1, 12 h, read-out: IC50 against PANC-1 under both glucose starvation and normal glucose conditions): > 100 µM | IC50 ([3]; Homo sapiens, HT-29, 48 h): > 100 µM | Antiproliferative activity in words ([5]; all tested cell lines): completely inactive | IC50 ([4]; Homo sapiens, PANC-1, 48 h): > 100 µM

COc1ccc2cc(NC(=O)C3=NO[C@H]4[C@H](O)C=C[C@@H](Cl)[C@@]4(O)C3)c(=O)oc2c1OC [Compound 2, trichodermamide B]
IC50 ([1]; Homo sapiens, HUVEC): 1.69 ± 0.26 µM | IC50 ([2]; Homo sapiens, KMS-11, 48 h): 1.38 ± 0.12 µM | Anti-Austerity Activity Selectivity (PANC-1 cancer cells): did not display selectivity; also recorded: not selective | IC50 (PANC-1 cancer cells; [12]): 11.6 ± 1.59 µM | IC50 (PANC-1 cancer cells; [13]): 17.8 ± 4.75 µM | IC50 ([3]; Homo sapiens, HT-29, 48 h): 0.73 ± 0.12 µM | IC50 [5]: 0.7 to 3.6 µM | IC50 ([4]; Homo sapiens, PANC-1, 48 h): 3.58 ± 0.32 µM

COc1ccc2cc(NC(=O)[C@@]34C[C@@]5(O)C(ON3)[C@H](O)C=C[C@H]5S4)c(=O)oc2c1OC (stereo partly shown) [Compound 3, aspergillazine A]
IC50 ([1]; Homo sapiens, HUVEC): 26.2 ± 5.51 µM | IC50 ([2]; Homo sapiens, KMS-11, 48 h): 38 ± 7.72 µM | Anti-Austerity Activity Selectivity (PANC-1 cancer cells): selective | IC50 (PANC-1 cancer cells; [12]): > 400 µM | IC50 (PANC-1 cancer cells; [13]): 75.6 ± 4.08 µM | Selective index (SI) (PANC-1 cancer cells): ≥ 5 | IC50 ([3]; Homo sapiens, HT-29, 48 h): 22.2 ± 3.09 µM | IC50 ([4]; Homo sapiens, PANC-1, 48 h): 50.3 ± 4.21 µM

COc1ccc(C2SSC34CC5(O)C(Cl)C=CC(O)C5ON3C(=O)C2NC4=O)c(O)c1OC (stereo not shown) [Compound 4, DC1149B]
IC50 ([1]; Homo sapiens, HUVEC): 6.94 ± 0.86 µM | IC50 ([2]; Homo sapiens, KMS-11, 48 h): 7.6 ± 0.4 µM | Anti-Austerity Activity Selectivity (PANC-1 cancer cells): selective | IC50 (PANC-1 cancer cells; [12]): 213 ± 4.07 µM | IC50 (PANC-1 cancer cells; [13]): 22.4 ± 2.5 µM | Selective index (SI) (PANC-1 cancer cells): 10 | IC50 ([3]; Homo sapiens, HT-29, 48 h): 39.2 ± 4.6 µM | Inhibition of complex II in the mitochondrial electron transport chain [6]: inhibition | IC50 ([4]; Homo sapiens, PANC-1, 48 h): 24.7 ± 4.44 µM

CC(C)[C@@H](C)/C=C/[C@@H](C)[C@H]1CC[C@@H]2[C@]1(C)CC[C@H]1[C@]23C=C[C@]2(C[C@@H](O)CC[C@]12C)OO3 [Compound 5, ergosterol peroxide]
IC50 ([1]; Homo sapiens, HUVEC): > 100 µM | IC50 ([2]; Homo sapiens, KMS-11, 48 h): > 100 µM | IC50 (PANC-1 cancer cells; [12]): > 100 µM | IC50 (PANC-1 cancer cells; [13]): > 100 µM | IC50 ([3]; Homo sapiens, HT-29, 48 h): > 100 µM | IC50 [5]: > 100 µM | IC50 ([4]; Homo sapiens, PANC-1, 48 h): > 100 µM

COc1cc(O)c2c(=O)c(C)c(C)oc2c1 [Compound 8, 5-hydroxy-2,3-dimethyl-7-methoxychromone]
Antimicrobial activity [7]: weak or no | IC50 ([1]; Homo sapiens, HUVEC): > 100 µM | IC50 ([2]; Homo sapiens, KMS-11, 48 h): > 100 µM | IC50 (PANC-1 cancer cells; [12]): > 100 µM | IC50 (PANC-1 cancer cells; [13]): > 100 µM | IC50 ([3]; Homo sapiens, HT-29, 48 h): > 100 µM | DPPH scavenging activity [8]: weak or no | IC50 [5]: > 100 µM | IC50 ([4]; Homo sapiens, PANC-1, 48 h): > 100 µM

CCC(C)C=CC=C(C)CC(C)C=CC=CC1OC(=O)C(O)C2OC12C (stereo not shown) [Compound 9, nafuredin A]
Inhibition of complex I in helminth mitochondria [9]: selective inhibition | Antibacterial activity against Escherichia coli (Escherichia coli): exhibited antibacterial activity | Cytotoxicity (human cervical HeLa): no cytotoxicity | Cytotoxicity (colon HCT-116): no cytotoxicity | IC50 ([1]; Homo sapiens, HUVEC): 2.45 ± 0.16 µM | IC50 ([2]; Homo sapiens, KMS-11, 48 h): 6.9 ± 1.84 µM | Anti-Austerity Activity Selectivity (PANC-1 cancer cells): selective | IC50 (PANC-1 cancer cells; [12]): 76.7 ± 3.22 µM | IC50 (PANC-1 cancer cells; [13]): 49 ± 1.31 µM | Selective index (SI) (PANC-1 cancer cells): 2 | IC50 ([3]; Homo sapiens, HT-29, 48 h): 11.9 ± 0.55 µM | IC50 [5]: 6.9 to 15.3 µM | Cytotoxicity (breast MCF-7): no cytotoxicity | Stability in air [10]: unstable in air | Cytotoxicity (leukemia K562): no cytotoxicity | IC50 ([4]; Homo sapiens, PANC-1, 48 h): 15.3 ± 0.44 µM | Cytotoxicity [11]: no cytotoxicity | Cytotoxicity (leukemia HL-60): no cytotoxicity | Cytotoxicity (lung A549): no cytotoxicity
